Entries after “also recorded” stand apart in the source; their conditions may differ. Where two headings read alike, the source gives them in different places.
How the values were obtained:
PC/RS cortical neurons = assay: protection by anti-psychotic drugs against MK-801 (NRH)-induced vacuoles in rats; type: in vivo; details: ip; for ED50: Rattus norvegicus, Cortical neurone; for protection against vacuoles (activity in words): MK-801-treated rats
Protocol: Control animals received saline or DMSO, but no anti-psychotic drugs. Test animals were injected ip with an antipsychotic drug, listed above and in Table 2. Vacuoles were counted and data were processed as described in Example 1.

sigma receptors = details: sigma and dopamine receptors; cited from earlier work
[1] = system: pyramidal neurons in layers III and IV of the posterior cingulate (PC) and retrosplenial (RS) cortices; assay: protection by alpha-2 adrenergic agonists against MK-801 neurotoxicity (vacuolated PC/RS neurons) in rats; details: for ED50: Rattus norvegicus, Pyramidal neuron, ip; for relative potency in preventing the neurotoxic reaction: ranking in words among the four α2 agonists
Source text: For each test agent, at least 17 rats were used and at least four doses tested.
The rats were sacrificed four hours after treatment, and brain tissue from the PC/RS region was histopathologically evaluated by previously described methods using double-blinded techniques (Olney et al 1991). The number of vacuolated PC and RS neurons were counted on each side of the brain at a rostrocaudal level immediately posterior to where the corpus callosum ceases decussating across the midline (approximately 5.6 mm caudal to Bregma; Paxinos & Watson, The Rat Brain in Stereotaxic Coordinates, 2d Ed., 1986).

α2 receptors = details: in words; cited from earlier work
chick embryo retina = assay: NMDA excitotoxicity in chick embryo retina segments, protection by MK-801 with or without alpha-2 agonist; type: cell-based; details: MK-801 500 nM; for cytopathology in retina incubated in NMDA plus MK-801, without or with α2 agonist: NMDA 40 μM, α2 agonist 500 nM to 100 μM, n=6 per condition
Protocol: These experiments were performed using segments of chick embryo retina. This is a widely used model for studying the production and prevention of excitotoxic phenomena, since it is simple and inexpensive. Chick tissue is used, since it tends to provide a better model of adult mammalian tissue than embryonic or juvenile mammalian tissue. Unlike newborn mammals, which are usually blind at birth, baby chicks can see quite well as soon as they emerge from the shell, and the NMDA receptors in chick retinal tissue are fully mature and functional.
In these tests, NMDA was introduced into the incubation medium in a concentration (40 μM) sufficient to produce a fully developed excitotoxic lesion within 30 min, displaying acute degeneration and necrosis of the majority of neurons in the inner layers of the retina.

NMDA receptor = details: humans, literature; cited from earlier work
cerebral cortex = details: cited from earlier work
[2] = compared to clonidine, cited from earlier work
[3] = system: people addicted to cigarettes or opiates; details: cited from earlier work
[4] = cited from earlier work
[5] = penetration of sulpiride into the CNS; type: in vivo; details: in words
[6] = Sershen 1994; cited from earlier work
[7] = system: KA and/or QUIS/AMPA classes of EAA receptors; assay: blocking of MK-801 neurotoxic side effects by non-NMDA antagonist drugs in vivo; details: adult rats
Source text: In addition to the foregoing classes of drugs, the Applicants have also recently discovered that non-NMDA antagonist drugs which can penetrate the BBB and block the KA and/or QUIS/AMPA classes of EAA receptors.

O=C(CCCN1CCC(O)(c2ccc(Cl)cc2)CC1)c1ccc(F)cc1 [Haloperidol]
ED50 (PC/RS cortical neurons): 5.1 mg/kg
receptor selectivity (sigma receptors): interact with both dopamine receptors and sigma receptors

Cc1cccc(C)c1N=C1NCCCS1 [Xylazine]
ED50 ([1]; 4 h): 2.4 mg/kg
relative potency in preventing the neurotoxic reaction [1]: the least potent
affinity/selectivity for α2 over α1 receptors (α2 receptors): activate α2 receptors with higher affinity than they have for α1 receptors
cytopathology in retina incubated in NMDA plus MK-801, without or with α2 agonist (chick embryo retina): no cytopathology

c1ccc(C2(N3CCCCC3)CCCCC2)cc1 [Phencyclidine]
psychotomimetic reactions (NMDA receptor): can induce a psychosis which is clinically indistinguishable from schizophrenia
pathomorphological changes in brain (cerebral cortex; adult rat, literature): produce pathomorphological changes in various corticolimbic regions of the adult rat brain

N=C(N)NC(=O)Cc1c(Cl)cccc1Cl [guanfacine]
hypotensive side effects [2]: substantially lower activity in reducing blood pressure than clonidine
affinity/selectivity for α2 over α1 receptors (α2 receptors): activate α2 receptors with higher affinity than they have for α1 receptors; also recorded: substantially higher selectivity for α2 receptors (and substantially lower affinity for α1 receptors) than clonidine

Clc1cccc(Cl)c1N=C1NCCN1 [Clonidine]
ED50 ([1]; 4 h): 0.044 mg/kg
relative potency in preventing the neurotoxic reaction [1]: the most potent
reduction of withdrawal symptoms [3]: help reduce withdrawal symptoms in some recovering addicts
affinity/selectivity for α2 over α1 receptors (α2 receptors): activate α2 receptors with higher affinity than they have for α1 receptors
cytopathology in retina incubated in NMDA plus MK-801, without or with α2 agonist (chick embryo retina): no cytopathology

CN1CCN(C2=Nc3ccccc3Oc3ccc(Cl)cc32)CC1 [Loxapine]
ED50 (PC/RS cortical neurons): 23.6 mg/kg
receptor selectivity (sigma receptors): interact with both dopamine receptors and sigma receptors

CNC1(c2ccccc2Cl)CCCCC1=O (stereo not drawn) [Ketamine]
duration of action ([4]; ketamine, human anesthesia): about 15 minutes
pathomorphological changes in brain (cerebral cortex; rat, in vivo): cause pathomorphological changes in the cerebral cortex of adult rats

CCN1CCCC1CNC(=O)c1cc(S(N)(=O)=O)ccc1OC (stereo not drawn) [Sulpiride]
ED50 (PC/RS cortical neurons): > 200 mg/kg
protection against vacuoles (activity in words) (PC/RS cortical neurons): Inactive
protection against vacuoles (activity in words) (PC/RS cortical neurons; listed as sulpiride): inactive
time to penetrate into the CNS [5]: several hours

CCNC1(c2cccs2)CCCCC1=O (stereo not drawn) [Tiletamine]
pathomorphological changes in brain (cerebral cortex; adult rat, literature): cause pathomorphological changes in the cerebral cortex of adult rats

CC(Oc1c(Cl)cccc1Cl)C1=NCCN1 (stereo not drawn) [lofexidine]
hypotensive side effects [2]: substantially lower hypotensive side effects than clonidine; also recorded: substantially lower activity in reducing blood pressure than clonidine
hypotensive side effects ([2]; listed as Lofexidine): reduced hypotensive side effects compared to clonidine
reduction of withdrawal symptoms [3]: help reduce withdrawal symptoms in some recovering addicts
affinity/selectivity for α2 over α1 receptors (α2 receptors): activate α2 receptors with higher affinity than they have for α1 receptors

CC[C@H]1C[C@H]2C[C@H]3c4[nH]c5ccc(OC)cc5c4CCN(C2)[C@@H]13 [ibogaine]
craving for cocaine [6]: can suppress the craving for cocaine

NS(=O)(=O)c1cccc2c1c([N+](=O)[O-])cc1nc(O)c(O)nc12 [NBQX, 2,3-dihydroxy-6-nitro-7-sulfamoylbenzo(F)quinoxaline]
block of neurotoxic side effects of NMDA antagonist drugs such as MK-801 [7]: can also block the neurotoxic side effects of NMDA antagonist drugs such as MK-801

CSc1ccc2c(c1)N(CCC1CCCCN1C)c1ccccc1S2 (stereo not drawn) [Thioridazine]
ED50 (PC/RS cortical neurons): 55.3 mg/kg
receptor selectivity (sigma receptors): interact with both dopamine receptors and sigma receptors

C[C@]12N[C@H](Cc3ccccc31)c1ccccc12 [MK-801, (+)-5-methyl-10,11-dihydro-5H-di[a,d]-cyclohepten-5,10-imine]
mean number of vacuolated neurons per section ([1]; MK-801 0.5 mg/kg sc plus vehicle, 4 h, SEM, n=26): 223±10.5 vacuolated neurons per section
neurotoxic reaction to MK-801 ([1]; all control animals, MK-801 0.5 mg/kg sc): All control animals developed a neurotoxic reaction
protection against excitotoxic damage (chick embryo retina; regardless of α2 agonist): completely protected against excitotoxic damage
cytopathology in retina incubated in NMDA plus MK-801, without or with α2 agonist (chick embryo retina): no cytopathology
duration of action ([4]; in words): measured in days

C[C@@H]1CN(CCCn2c3ccccc3c3ccccc32)C[C@H](C)N1 [Rimcazole]
ED50 (PC/RS cortical neurons): 17.8 mg/kg
receptor selectivity (sigma receptors): substantial affinity only for sigma receptors

From patent US5605911A, “Use of alpha-2 adrenergic drugs to prevent adverse effects of NMDA receptor hypofunction (NRH)” (priority 1995, dated 1997)
